Structure (SMILES)	melting point
CC(C)(C)OC(=O)NCc1ccc(N/C(=C2\C(=O)Nc3ccc([N+](=O)[O-])cc32)c2ccccc2)cc1 [Example 113, (Z)-3-[1-(4-tert.butoxycarbonylaminomethyl-phenylamino)-1-phenyl-methylidene]-5-nitro-2-indolinone]	234 to 236 °C (dec.)
CC(=O)N(C)Cc1ccc(N/C(=C2\C(=O)Nc3ccc([N+](=O)[O-])cc32)c2ccccc2)cc1 [Example 122, (Z)-3-{1-[4-(N-acetyl-N-methyl-aminomethyl)-phenylamino]-1-phenyl-methylidene}-5-nitro-2-indolinone]	307 °C
C[C@H](NC(=O)OC(C)(C)C)c1ccc(N/C(=C2\C(=O)Nc3ccc([N+](=O)[O-])cc32)c2ccccc2)cc1 [Example 123, (Z,S)-3-{1-[4-(1-tert.butoxycarbonylamino-ethyl)-phenylamino]-1-phenyl-methylidene}-5-nitro-2-indolinone]	247 to 249 °C (dec.)
C[C@@H](NC(=O)OC(C)(C)C)c1ccc(N/C(=C2\C(=O)Nc3ccc([N+](=O)[O-])cc32)c2ccccc2)cc1 [Example 125, (Z,R)-3-{1-[4-(1-tert.butoxycarbonylamino-ethyl)-phenylamino]-1-phenyl-methylidene}-5-nitro-2-indolinone]	247 to 249 °C
CC(C)(C)OC(=O)NCCc1ccc(N/C(=C2\C(=O)Nc3ccc([N+](=O)[O-])cc32)c2ccccc2)cc1 [Example 127, (Z)-3-{1-[4-(2-tert.butoxycarbonylamino-ethyl)-phenylamino]-1-phenyl-methylidene}-5-nitro-2-indolinone]	213 to 214 °C
CC(C)(C)OC(=O)NCC(=O)NCc1cccc(N/C(=C2\C(=O)Nc3ccc([N+](=O)[O-])cc32)c2ccccc2)c1 [Example 136, (Z)-3-[1-(3-tert.butoxycarbonylaminomethylcarbonylaminomethyl-phenylamino)-1-phenyl-methylidene]-5-nitro-2-indolinone]	228 °C
CC(C)(C)OC(=O)NCC(=O)NCc1ccc(N/C(=C2\C(=O)Nc3ccc([N+](=O)[O-])cc32)c2ccccc2)cc1 [Example 144, (Z)-3-[1-(4-tert.butoxycarbonylaminomethylcarbonylaminomethyl-phenylamino)-1-phenyl-methylidene]-5-nitro-2-indolinone]	219 to 221 °C (dec.)
CC(=O)NC(c1ccc(N/C(=C2\C(=O)Nc3ccc([N+](=O)[O-])cc32)c2ccccc2)cc1)N(C)C(=O)OC(C)(C)C (stereo not shown) [Example 145, (Z)-3-{1-[4-((N-tert.butoxycarbonyl-N-methyl-amino)-methylcarbonylaminomethyl)-phenylamino]-1-phenyl-methylidene}-5-nitro-2-indolinone]	225 to 227 °C (dec.)
CC(=O)N1C(=O)/C(=C(\Nc2ccc(CNC(=O)OC(C)(C)C)cc2)c2ccc(CN3C(=O)c4ccccc4C3=O)cc2)c2cc([N+](=O)[O-])ccc21 [Example 146, (Z)-3-[1-(4-tert.butoxycarbonylaminomethyl-phenylamino)-1-(4-phthalimidomethyl-phenyl)-methylidene]-1-acetyl-5-nitro-2-indolinone]	125 °C (dec.)
CC(C)(C)OC(=O)NCc1ccc(N/C(=C2\C(=O)Nc3ccc([N+](=O)[O-])cc32)c2ccc(CNC(=O)c3ccccc3C(=O)O)cc2)cc1 [Example 147, (Z)-3-{1-[4-tert.butoxycarbonylaminomethyl-phenylamino]-1-[4-(2-carboxyphenyl)-carbonylaminomethyl-phenyl]-methylidene}-5-nitro-2-indolinone]	138 °C (dec.)
CC(C)(C)OC(=O)NCc1ccc(N/C(=C2\C(=O)Nc3ccc([N+](=O)[O-])cc32)c2ccc(CN)cc2)cc1 [Example 148, (Z)-3-[1-(4-tert.butoxycarbonylaminomethyl-phenylamino)-1-(4-aminomethyl-phenyl)-methylidene]-5-nitro-2-indolinone]	220 to 223 °C
CC(=O)NCc1ccc(/C(Nc2ccc(CNC(=O)OC(C)(C)C)cc2)=C2/C(=O)Nc3ccc([N+](=O)[O-])cc32)cc1 [Example 150, (Z)-3-[1-(4-tert.butoxycarbonylaminomethyl-phenylamino)-1-(4-acetylaminomethyl-phenyl)-methylidene]-5-nitro-2-indolinone]	234 °C (dec.)
O=C1Nc2ccc([N+](=O)[O-])cc2/C1=C(/Nc1ccccc1)c1ccc(CN2C(=O)c3ccccc3C2=O)cc1 [Example 153, (Z)-3-[1-phenylamino-1-(4-phthalimidomethyl-phenyl)-methylidene]-5-nitro-2-indolinone]	334 to 336 °C (dec.)

Further lines, results first:

melting point	Structure (SMILES)
214 to 215 °C	O=C1Nc2ccc([N+](=O)[O-])cc2/C1=C(/Nc1cccc(CN2CCCCC2)c1)c1ccccc1 [Example 108, (Z)-3-[1-(3-piperidinomethyl-phenylamino)-1-phenyl-methylidene]-5-nitro-2-indolinone]
256 to 258 °C	CN1CCN(Cc2cccc(N/C(=C3\C(=O)Nc4ccc([N+](=O)[O-])cc43)c3ccccc3)c2)CC1 [Example 110, (Z)-3-{1-[3-(4-methylpiperazinomethyl)-phenylamino]-1-phenyl-methylidene}-5-nitro-2-indolinone]
130 to 133 °C	CCOC(=O)CNCc1cccc(N/C(=C2\C(=O)Nc3ccc([N+](=O)[O-])cc32)c2ccccc2)c1 [Example 111, (Z)-3-[1-(3-ethoxycarbonylmethylaminomethyl-phenylamino)-1-phenyl-methylidene]-5-nitro-2-indolinone]
142 to 145 °C	CCOC(=O)CCNCc1cccc(N/C(=C2\C(=O)Nc3ccc([N+](=O)[O-])cc32)c2ccccc2)c1 [Example 112, (Z)-3-{1-[3-(2-ethoxycarbonyl-ethylaminomethyl)-phenylamino]-1-phenyl-methylidene}-5-nitro-2-indolinone]
273 °C	O=C1Nc2ccc([N+](=O)[O-])cc2/C1=C(/Nc1ccc(CN2CCOCC2)cc1)c1ccccc1 [Example 118, (Z)-3-[1-(4-morpholinomethyl-phenylamino)-1-phenyl-methylidene]-5-nitro-2-indolinone]
220 °C	O=C1Nc2ccc([N+](=O)[O-])cc2/C1=C(/Nc1ccc(CN2CCCCCC2)cc1)c1ccccc1 [Example 119, (Z)-3-[1-(4-hexamethyleneiminomethyl-phenylamino)-1-phenyl-methylidene]-5-nitro-2-indolinone]
306 to 307 °C	CC(=O)NCCc1ccc(N/C(=C2\C(=O)Nc3ccc([N+](=O)[O-])cc32)c2ccccc2)cc1 [Example 129, (Z)-3-{1-[4-(2-acetylamino-ethyl)-phenylamino]-1-phenyl-methylidene}-5-nitro-2-indolinone]
167 to 168 °C	CCN(CC)CCc1ccc(N/C(=C2\C(=O)Nc3ccc([N+](=O)[O-])cc32)c2ccccc2)cc1 [Example 130, (Z)-3-{1-[4-(2-diethylamino-ethyl)-phenylamino]-1-phenyl-methylidene}-5-nitro-2-indolinone]
165 to 166 °C	CCN(CCO)CCc1ccc(N/C(=C2\C(=O)Nc3ccc([N+](=O)[O-])cc32)c2ccccc2)cc1 [Example 131, (Z)-3-{1-[4-(2-(N-(2-hydroxyethyl)-N-ethyl-amino)-ethyl)-phenylamino]-1-phenyl-methylidene}-5-nitro-2-indolinone]
236 to 237 °C	O=C1Nc2ccc([N+](=O)[O-])cc2/C1=C(/Nc1ccc(CCN2CCCCC2)cc1)c1ccccc1 [Example 132, (Z)-3-{1-[4-(2-piperidinoethyl)-phenylamino]-1-phenyl-methylidene}-5-nitro-2-indolinone]
238 to 240 °C	CN1CCN(CCc2ccc(N/C(=C3\C(=O)Nc4ccc([N+](=O)[O-])cc43)c3ccccc3)cc2)CC1 [Example 135, (Z)-3-{1-[4-(2-(4-methylpiperazino)-ethyl)-phenylamino]-1-phenyl-methylidene}-5-nitro-2-indolinone]
238 °C	CC(=O)NCc1cccc(N/C(=C2\C(=O)Nc3ccc([N+](=O)[O-])cc32)c2ccccc2)c1 [Example 138, (Z)-3-[1-(3-acetylaminomethyl-phenylamino)-1-phenyl-methylidene]-5-nitro-2-indolinone]
255 to 256 °C	CN(C(=O)CN)c1ccc(N/C(=C2\C(=O)Nc3ccc([N+](=O)[O-])cc32)c2ccccc2)cc1 [Example 139, (Z)-3-{1-[4-(N-aminomethylcarbonyl-N-methyl-amino)-phenyl-amino]-1-phenyl-methylidene}-5-nitro-2-indolinone]
277 to 278 °C	CC(=O)NCC(=O)N(C)c1ccc(N/C(=C2\C(=O)Nc3ccc([N+](=O)[O-])cc32)c2ccccc2)cc1 [Example 140, (Z)-3-{1-[4-(N-acetylaminomethylcarbonyl-N-methyl-amino)phenylamino]-1-phenyl-methylidene}-5-nitro-2-indolinone]
290 to 295 °C	O=C(CN1CCOCC1)NCc1ccc(N/C(=C2\C(=O)Nc3ccc([N+](=O)[O-])cc32)c2ccccc2)cc1 [Example 141, (Z)-3-[1-(4-morpholinomethylcarbonylaminomethyl-phenylamino)-1-phenyl-methylidene]-5-nitro-2-indolinone]
272 to 273 °C	CN(C)CC(=O)NCc1ccc(N/C(=C2\C(=O)Nc3ccc([N+](=O)[O-])cc32)c2ccccc2)cc1 [Example 142, (Z)-3-[1-(4-dimethylaminomethylcarbonylaminomethyl-phenylamino)-1-phenyl-methylidene]-5-nitro-2-indolinone]
345 to 346 °C	CC(=O)NCc1ccc(N/C(=C2\C(=O)Nc3ccc([N+](=O)[O-])cc32)c2ccccc2)cc1 [Example 143, (Z)-3-[1-(4-acetylaminomethyl-phenylamino)-1-phenyl-methylidene]-5-nitro-2-indolinone]
332 °C (dec.)	NCc1ccc(/C(Nc2ccccc2)=C2/C(=O)Nc3ccc([N+](=O)[O-])cc32)cc1 [Example 154, (Z)-3-[1-phenylamino-1-(4-aminomethyl-phenyl)-methylidene]-5-nitro-2-indolinone]

Reference: patent US6855710B2, “Substituted indolines with an inhibitory effect on various kinases and complexes of CDKs” (Boehringer Ingelheim Pharma KG, priority 1998, dated 2005)
